Experimental findings from ChEMBL document CHEMBL3120142 (J Med Chem, 2014) are described below.

The source made the active and inactive calls. The rule behind the calls is not given here.

This assay deals with Influenza A virus. It counts as functional, organism-based. The note with it: A/Berlin/55/08(H1N1), MDCK.

In the case of `CCC(CC)O[C@@H]1C=C(C(=O)O)C[C@H](N)[C@H]1NC(C)=O` [OSELTAMIVIR CARBOXYLATE], the result was Active.

As for `CC(=O)N[C@H]1[C@H]([C@H](O)[C@H](O)CO)OC(C(=O)O)=C[C@@H]1NC(=N)N` [ZANAMIVIR], the result was Active.
